In PMC11802874, “The hypolipidemic effect of MI-883, the combined CAR agonist/ PXR antagonist, in diet-induced hypercholesterolemia model” (Nature Communications, 2025):
Values joined by “and” are separate entries in the source; they are usually repeats but may differ in a detail not shown here. Equal values may be shown once.

Legend:
human CAR variant 3 = target: T1, human CAR variant 3 (Homo sapiens, UniProt Q14994, DEL233-236); test: CAR3 luciferase reporter assay (CYP2B6-luc) in HepG2 cells; format: cell-based
T1 construct: host or cells: HepG2
T1 sequence (Q14994 with tags, fused parts or gaps isoform Q14994-8 DEL233-236): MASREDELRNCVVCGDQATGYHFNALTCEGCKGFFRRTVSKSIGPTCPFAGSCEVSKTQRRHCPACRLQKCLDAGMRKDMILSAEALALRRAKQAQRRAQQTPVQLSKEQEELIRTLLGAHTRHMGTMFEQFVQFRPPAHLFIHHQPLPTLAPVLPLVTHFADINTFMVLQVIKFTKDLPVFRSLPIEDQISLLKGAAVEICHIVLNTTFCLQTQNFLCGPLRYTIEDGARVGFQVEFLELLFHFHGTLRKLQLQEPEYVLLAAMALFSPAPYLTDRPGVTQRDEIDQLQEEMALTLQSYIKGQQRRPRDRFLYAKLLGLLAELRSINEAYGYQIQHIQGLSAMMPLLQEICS
T1 sequence (P19793 1-462 partner): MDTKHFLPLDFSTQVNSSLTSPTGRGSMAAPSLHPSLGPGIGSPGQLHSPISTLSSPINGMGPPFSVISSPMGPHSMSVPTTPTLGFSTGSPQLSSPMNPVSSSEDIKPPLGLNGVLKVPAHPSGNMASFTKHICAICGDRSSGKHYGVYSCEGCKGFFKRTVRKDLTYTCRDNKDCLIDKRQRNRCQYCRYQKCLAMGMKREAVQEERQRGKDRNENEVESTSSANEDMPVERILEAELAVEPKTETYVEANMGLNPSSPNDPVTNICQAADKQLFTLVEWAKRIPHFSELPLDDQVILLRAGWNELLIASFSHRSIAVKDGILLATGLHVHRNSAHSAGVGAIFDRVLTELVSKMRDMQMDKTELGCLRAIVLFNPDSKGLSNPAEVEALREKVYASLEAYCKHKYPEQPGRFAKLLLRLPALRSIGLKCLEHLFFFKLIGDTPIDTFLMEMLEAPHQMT
Description: CAR3 luciferase reporter assay (with CYP2B6-luc) was performed in human hepatocellular carcinoma HepG2 cells as we described[19] For the CAR3 assay (Fig. 1d), a CYP2B6-luc reporter plasmid (originally entitled B-1.6k/PB/XREM) was kindly donated by Dr. Hongbing Wang (University of Maryland School of Pharmacy, Baltimore, MD, USA). All expression vectors are described in Supplementary, Chapter 4).
Cells were treated for 24 h with MI-883 in a range of concentration from 0.1 nM to 30 µM (n = 3). The half maximal effective concentration (EC50) to activate CAR or inhibit PXR (IC50) in the assays was calculated from at least eight points of the dose-response curves using the GraphPad Prism software.

[1] = system: humanized PXR-CAR-CYP3A4/3A7 mice, ileum; test: RT-qPCR and Western blotting of ileum samples (HFD/HCD studies); format: in vivo, mouse; conditions: for Npc1l1 mRNA (RT-qPCR ileum): FigS14a
Source text: Specific TaqMan probes were used to analyze ileal samples, following the protocol described in Supplementary Table S3.
Western blotting experiments have been performed in BioRad instruments with BioRad precasted gels and reagents. Antibodies are listed in Supplementary Table S4. Densitometry has been done using ChemiDoc™ MP Imaging System and software (BioRad, Hercules, USA). Data are presented as relative protein expression to control samples. For protein expression quantification, areas in histograms have been calculated and related to a reference protein.

[2] = Metabolic stability in human liver S9 fraction
Description: Shimadzu HPLC system including vacuum degasser, gradient pumps, reverse phase HPLC column, column oven, and autosampler with an API 4000 QTRAP mass spectrometer (Applied Biosystems/MDS Sciex (AB Sciex) with Turbo V ion source and TurboIonspray interface were used. The reference compound midazolam, which is metabolized both by phase I and phase II enzymes, was used. The elimination constant (kel), half-life (t1/2), and intrinsic clearance (Clint) were determined[19] (Table S1).
Supplementary Figure 1. […] Test compounds (1 μM, final DMSO concentration 1%) were incubated at 37 °C with shaking at 100 rpm. Four time points over 120 minutes have been analyzed. The reactions were stopped by adding 420 μL of acetonitrile-water mixture (90:10). Supernatants were analyzed by the HPLC system coupled with a tandem mass spectrometer. The percentage (in % of initial concertation) of the test compounds remaining after incubation in plasma and their half-lives (t1/2) were calculated. […] The stability of the compound was tested in human liver S9 fraction. Cofactors were used such as UDPGA (for glucuronidation), PAPS (for sulfation), and reduced glutathione (for conjugation of GSH). Compounds were tested in triplicate with or without NADPH. Propantheline and midazolam were used as unstable control compounds in the experiments. Data represent the means±S.D. from at least three independent samples.

[3] = FigS14b, ileum, individual animals, relative to vehicle

SMILES: NC(=O)c1cc(Cn2cc(-c3c(-c4ccc(Cl)cc4)nc4cc(F)ccn34)nn2)ccc1Cl [MI-883, 2-chloro-5-((4-(2-(4-chlorophenyl)-7-fluoroimidazo[1,2-a]pyridin-3-yl)-1H-1,2,3-triazol-1-yl)methyl)benzamide]
- CAR3 variant activation (Fig. 1d), replicates (human CAR variant 3; concentration 0.01 (unit not given), HepG2, 24 h): 1
- CAR3 variant activation (Fig. 1d), replicates (human CAR variant 3; concentration 0.1 (unit not given)): 1.35 and 1.4 and 2.3
- CAR3 variant activation (Fig. 1d), replicates (human CAR variant 3; concentration 1 (unit not given)): 4.55 and 1.6 and 1.1
- CAR3 variant activation (Fig. 1d), replicates (human CAR variant 3; concentration 10 (unit not given)): 4.3 and 13.5 and 6.2
- CAR3 variant activation (Fig. 1d), replicates (human CAR variant 3; concentration 30 (unit not given)): 10.05 and 10.1 and 9.78
- Npc1l1 mRNA (RT-qPCR ileum) ([1]; HCD, ileum, individual animals, relative to vehicle): 0.6886 and 0.6208 and 0.503 and 1.313 and 0.759 and 0.8325
- Npc1l1 mRNA (RT-qPCR ileum) ([1]; HFD, ileum, individual animals, relative to vehicle): 1.357 and 1.364 and 0.9665 and 1.432
- Abcg5 mRNA (RT-qPCR ileum) [1, 3]: 1.01 and 0.5455 and 0.4999 and 1.367 and 0.6847 and 1.339
- Abcg8 mRNA (RT-qPCR ileum) [1, 3]: 0.9573 and 0.7781 and 0.4243 and 1.303 and 0.6152 and 1.193
- Fgf15 mRNA (RT-qPCR ileum) ([1]; FigS14c, HCD, ileum, individual animals, relative to vehicle): 0.6669 and 0.9092 and 0.1811 and 0.1054 and 2.113 and 1.33
- Fgf15 mRNA (RT-qPCR ileum) ([1]; FigS14c, HFD, ileum, individual animals, relative to vehicle): 0.03638 and 0.6965 and 4.34 and 0.01802
- Shp mRNA (RT-qPCR ileum) ([1]; FigS14c, ileum, individual animals, relative to vehicle): 1.017 and 0.2256 and 0.2775 and 0.6923 and 3.416 and 0.8457
- Asbt protein in the mouse ileum ([1]; HFD study): significantly decreased
- ileum Cyp2b6 i, individual animals ([1]; HFD study, relative to control): 4.346 and 14.7968 and 1.588 and 2.908 and 3.922 and 0.8524
- ileum Mrp4 i, individual animals ([1]; HFD study, relative to control): 0.275 and 0.7792 and 1.874 and 1.502 and 1.969 and 1.209
- ileum Slc10a2 i, individual animals ([1]; HFD study, relative to control): 0.08727 and 0.1129 and 0.7704 and 0.8835 and 0.4948
- ileum Slc51a i, individual animals ([1]; HFD study, relative to control): 0.2127 and 0.5386 and 0.8471 and 0.8796 and 0.7946 and 0.7965
- ileum Slc51b i, individual animals ([1]; HFD study, relative to control): 0.7174 and 1.595 and 0.9945 and 0.7427 and 0.4728 and 0.5989
- ileal Npc1l1 and Abcg5/8 ([1]; Supplementary Fig. 14): did not observe any regulation
- ileal Shp and Fgf15 mRNA levels ([1]; Supplementary Fig. 14): not affected
- half-life at 2 µM ([2]; human, liver S9 fraction): 2.85 h
- microsomal CLint at 2 µM ([2]; human, liver S9 fraction): 2 µL/min/mg
- Stability in S9 fraction (human liver), % remaining ([2]; time 0 (min), 2 μM): 100
- Stability in S9 fraction (human liver), % remaining ([2]; time 20): 100
- Stability in S9 fraction (human liver), % remaining ([2]; time 40): 92
- Stability in S9 fraction (human liver), % remaining ([2]; time 60): 96
- Stability in S9 fraction (human liver), % remaining ([2]; time 120): 84
